Patent publication US8629132B2, “Kinase inhibitors” (Genosco, priority 2009, dated 2014)

Experiments:
K1T = K1T (Homo sapiens, UniProt P10721); assay: Kinase inhibition assay: KIT; type: biochemical
LRRK2 = biological target: T1, LRRK2 (Homo sapiens, UniProt Q5S007); assay: Kinase inhibition assay: LRRK2; type: biochemical; settings: at 1 μM concentration
T1 construct: truncated human FAK, RET, FLT3, JAK2, and LRRK2; purchased Carna Biosciences
Protocol: (§1) Compounds of the present invention were tested for their capacity to inhibit a kinase panel which includes, but are not limited to, spleen tyrosine kinase (SYK), zeta-chain-associated protein kinase 70 (ZAP70), PTK2B protein tyrosine kinase 2 (PYK2), focal adhesion kinase (FAK), provirus integration of maloney kinase 1 (PIM1), rearranged during transfection kinase (RET), Fms-like tyrosine kinase 3 (FLT3), Janus kinase 2 (JAK2), and leucine-rich repeat kinase 2 (LRRK2).
(§2) Inhibition of SYK, ZAP70, PYK2, FAK, PIM1, RET, FLT3, JAK2 and LRRK2 Kinase Activity
(§3) Compounds of the invention were initially diluted to 10 mM in 100% DMSO (CALBIOCHEM™) for storage and made into kinase buffer solution to create a compound concentration ranging from 1 uM and 10 uM. Serial dilutions of compounds of the invention were dispensed into a 96-well plate (GREINER BIOSCIENCES™) at 6 μL each. Purified full-length human SYK, ZAP70, PIM1, PYK2 and truncated human FAK, RET, FLT3, JAK2, and LRRK2 (CARNA BIOSCIENCES™) were diluted in kinase buffer and added to the compound solutions and pre-incubated for 30 minutes at room temperature (1 hour for PYK2). […] The reaction mixture was incubated for 1 hour (2 hours for PYK2). Following the incubation, the stop solution made with EDTA, water, and Lance detection buffer ([…]™) was added (12μL each) to stop phosphorylation. […] The IC50 value of test compound was calculated at Gradpad Prism 5 unless specified otherwise.

FAK = biological target: T2, FAK (Homo sapiens, UniProt Q05397); assay: Kinase inhibition assay: FAK; type: biochemical; settings: at 1 μM concentration
T2 construct: truncated human FAK, RET, FLT3, JAK2, and LRRK2; purchased Carna Biosciences
T2 sequence (Q05397 376-1052 limits assumed): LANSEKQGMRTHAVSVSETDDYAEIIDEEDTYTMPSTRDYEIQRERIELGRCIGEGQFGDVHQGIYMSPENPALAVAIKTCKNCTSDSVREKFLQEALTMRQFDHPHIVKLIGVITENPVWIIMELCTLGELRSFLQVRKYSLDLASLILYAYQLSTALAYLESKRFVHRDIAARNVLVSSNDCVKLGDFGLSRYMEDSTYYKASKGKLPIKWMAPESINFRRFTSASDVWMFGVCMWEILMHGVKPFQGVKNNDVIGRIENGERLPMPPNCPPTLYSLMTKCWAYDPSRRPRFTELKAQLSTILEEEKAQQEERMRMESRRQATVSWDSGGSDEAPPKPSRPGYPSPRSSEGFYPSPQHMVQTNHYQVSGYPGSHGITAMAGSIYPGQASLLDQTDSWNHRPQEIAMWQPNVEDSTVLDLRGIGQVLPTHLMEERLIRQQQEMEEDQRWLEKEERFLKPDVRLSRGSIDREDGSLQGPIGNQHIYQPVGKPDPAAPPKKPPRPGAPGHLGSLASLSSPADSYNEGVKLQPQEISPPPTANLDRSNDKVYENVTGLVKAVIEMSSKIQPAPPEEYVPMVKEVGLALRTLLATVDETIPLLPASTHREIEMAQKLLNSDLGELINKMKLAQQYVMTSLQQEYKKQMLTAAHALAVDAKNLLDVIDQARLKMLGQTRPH
Protocol: as §1, §2, §3

ZAP70 = biological target: T3, ZAP70 (Homo sapiens, UniProt P43403); assay: Kinase inhibition assay: ZAP70; type: biochemical; settings: at 1 μM concentration
T3 construct: Purified full-length human SYK, ZAP70, PIM1, PYK2; purchased Carna Biosciences
T3 sequence (P43403 1-619): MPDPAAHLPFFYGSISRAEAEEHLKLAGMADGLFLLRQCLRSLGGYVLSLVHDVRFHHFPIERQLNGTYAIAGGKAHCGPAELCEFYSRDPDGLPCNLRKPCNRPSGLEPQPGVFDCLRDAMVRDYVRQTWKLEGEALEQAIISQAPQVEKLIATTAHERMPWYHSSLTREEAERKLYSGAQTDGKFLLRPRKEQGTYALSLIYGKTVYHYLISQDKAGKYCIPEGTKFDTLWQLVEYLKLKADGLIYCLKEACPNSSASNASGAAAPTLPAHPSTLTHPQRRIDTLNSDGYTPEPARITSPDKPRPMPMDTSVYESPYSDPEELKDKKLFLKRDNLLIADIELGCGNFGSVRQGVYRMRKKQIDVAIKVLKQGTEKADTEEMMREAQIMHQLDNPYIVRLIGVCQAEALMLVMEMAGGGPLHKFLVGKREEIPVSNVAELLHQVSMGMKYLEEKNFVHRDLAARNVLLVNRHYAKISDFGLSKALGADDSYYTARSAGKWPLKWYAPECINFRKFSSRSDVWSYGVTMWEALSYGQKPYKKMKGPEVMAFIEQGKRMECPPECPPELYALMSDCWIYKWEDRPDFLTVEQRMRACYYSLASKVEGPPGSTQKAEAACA
Protocol: as §1, §2, §3

KIT = biological target: T4, KIT (Homo sapiens, UniProt P10721); assay: In vitro kinase inhibition profile (Ambit Biosciences); type: binding; settings: reported as percent control, lower numbers indicate stronger activities
T4 construct: purchased Ambit Biosciences
Protocol: (§4) Up to 518 different kinases have been identified in humans. To determine the scope of inhibitory effects of a representative compound of Formula (I) on known kinases, Compound 82 was tested against 104 commercially available kinases (Ambit Biosciences™). 104 kinases included ABL1(E255K)-phosphorylated, ABL1(T315I)-phosphorylated, ABL1-phosphorylated, ACVR1B, ADCK3, AKT1, AKT2, ALK, AURKA, AURKB, AXL, BMPR2, BRAF, BRAF(V600E), BTK, CDK11, CDK2, CDK3, CDK7, CDK9, CHEK1, CSF1R, CSNK1D, CSNK1G2, DCAMKL1, DYRK1B, EGFR, EGFR(L858R), EPHA2, ERBB2, ERBB4, ERK1, FAK, FGFR2, FGFR3, FLT1, FLT3, FLT4, GSK3B, IGF1R, IKK-α, IKK-β, INSR, JAK2(JH1domain-catalytic), JAK3 (JH1 domain-catalytic), JNK 1, JNK2, JNK3, KIT, KIT(D816V), KIT(V559D,T6701), LKB1, LRRK2, LRRK2(G2019S), MAP3K4, MAPKAPK2, MARKS, MEK1, MEK2, MET, MKNK1, MKNK2, MLK1, MTOR, p38-alpha, p38-beta, PAK1, PAK2, PAK-4, PCTK1, PDGFRA, PDGFRB, PDPK1, PIK3C2B, PIK3CA, PIK3CG, PIM1, PIM2, PIM3, PKAC-alpha, PLK1, PLK3, PLK4, PRKCE, PYK2, RAF1, RET, R10K2, ROCK2, RSK2, SNARK, SRC, SRPK3, SYK, TAK1, TGFBR1, TIE2, TRKA, TSSK1B, TYK2(JH1domain-catalytic), ULK2, VEGFR2, YANK3 and ZAP70.
(§5) Inhibition activity of Compound 82 was reported as percent control where lower numbers indicate stronger activities.

JAK3 = biological target: T5, JAK3 (Homo sapiens, UniProt P52333); assay: as above; type: binding; settings: reported as percent control, lower numbers indicate stronger activities
T5 construct: JAK3 (JH1 domain-catalytic); purchased Ambit Biosciences
T5 sequence (P52333 822-1111 limits assumed): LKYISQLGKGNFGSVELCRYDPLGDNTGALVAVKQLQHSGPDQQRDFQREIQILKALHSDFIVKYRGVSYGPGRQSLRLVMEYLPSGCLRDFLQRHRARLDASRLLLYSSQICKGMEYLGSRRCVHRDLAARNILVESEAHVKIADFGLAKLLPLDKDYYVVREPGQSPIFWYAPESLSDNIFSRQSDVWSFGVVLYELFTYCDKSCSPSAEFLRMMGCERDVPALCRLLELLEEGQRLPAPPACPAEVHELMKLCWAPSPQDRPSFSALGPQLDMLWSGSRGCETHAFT
Protocol: as §4, §5

AURKB = biological target: T6, AURKB (Homo sapiens, UniProt Q96GD4); assay: as above; type: binding; settings: reported as percent control, lower numbers indicate stronger activities
T6 construct: purchased Ambit Biosciences
T6 sequence (Q96GD4 whole entry): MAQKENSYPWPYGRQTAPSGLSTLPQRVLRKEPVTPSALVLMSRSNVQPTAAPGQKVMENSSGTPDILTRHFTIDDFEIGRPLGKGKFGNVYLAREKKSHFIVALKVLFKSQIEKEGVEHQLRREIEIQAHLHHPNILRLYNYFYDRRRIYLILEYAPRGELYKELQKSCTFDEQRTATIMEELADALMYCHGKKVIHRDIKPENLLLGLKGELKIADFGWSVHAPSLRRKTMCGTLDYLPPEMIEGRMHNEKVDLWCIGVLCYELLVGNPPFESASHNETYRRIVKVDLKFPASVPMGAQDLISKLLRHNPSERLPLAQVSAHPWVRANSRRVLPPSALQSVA
Protocol: as §4, §5

MLK1 = biological target: T7, MLK1 (Homo sapiens, UniProt P80192); assay: as above; type: binding; settings: reported as percent control, lower numbers indicate stronger activities
T7 construct: purchased Ambit Biosciences
T7 sequence (P80192 whole entry): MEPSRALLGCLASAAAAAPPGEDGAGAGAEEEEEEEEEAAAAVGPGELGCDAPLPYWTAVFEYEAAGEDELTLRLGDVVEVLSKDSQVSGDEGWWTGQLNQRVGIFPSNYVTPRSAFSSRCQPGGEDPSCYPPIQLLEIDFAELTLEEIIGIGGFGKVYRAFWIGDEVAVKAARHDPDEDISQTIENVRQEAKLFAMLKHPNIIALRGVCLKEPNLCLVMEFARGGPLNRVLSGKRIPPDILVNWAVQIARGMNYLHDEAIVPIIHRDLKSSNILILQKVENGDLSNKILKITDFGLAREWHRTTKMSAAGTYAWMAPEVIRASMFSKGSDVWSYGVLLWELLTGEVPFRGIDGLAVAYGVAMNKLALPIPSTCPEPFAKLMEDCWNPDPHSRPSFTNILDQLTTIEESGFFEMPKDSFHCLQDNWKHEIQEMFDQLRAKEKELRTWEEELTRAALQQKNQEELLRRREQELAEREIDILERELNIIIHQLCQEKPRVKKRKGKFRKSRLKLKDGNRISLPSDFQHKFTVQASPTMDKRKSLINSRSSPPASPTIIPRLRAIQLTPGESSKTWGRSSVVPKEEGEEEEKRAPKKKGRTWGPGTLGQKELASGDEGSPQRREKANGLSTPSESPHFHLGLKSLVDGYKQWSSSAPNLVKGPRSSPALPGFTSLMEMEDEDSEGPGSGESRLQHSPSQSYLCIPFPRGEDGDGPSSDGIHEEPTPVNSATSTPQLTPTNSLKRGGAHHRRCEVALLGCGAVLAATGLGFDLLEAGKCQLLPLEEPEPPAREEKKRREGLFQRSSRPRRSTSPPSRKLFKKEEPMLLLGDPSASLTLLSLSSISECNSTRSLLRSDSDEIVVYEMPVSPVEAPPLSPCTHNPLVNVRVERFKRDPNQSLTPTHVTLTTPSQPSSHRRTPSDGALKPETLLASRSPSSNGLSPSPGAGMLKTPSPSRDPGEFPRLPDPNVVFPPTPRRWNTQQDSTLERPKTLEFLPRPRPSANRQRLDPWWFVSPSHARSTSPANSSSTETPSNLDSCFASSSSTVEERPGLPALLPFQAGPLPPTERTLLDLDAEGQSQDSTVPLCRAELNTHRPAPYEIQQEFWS
Protocol: as §4, §5

PLK3 = biological target: T8, PLK3 (Homo sapiens, UniProt Q9H4B4); assay: as above; type: binding; settings: reported as percent control, lower numbers indicate stronger activities
T8 construct: purchased Ambit Biosciences
Protocol: as §4, §5

AXL = biological target: T9, AXL (Homo sapiens, UniProt P30530); assay: as above; type: binding; settings: reported as percent control, lower numbers indicate stronger activities
T9 construct: purchased Ambit Biosciences
Protocol: as §4, §5

RET = biological target: T10, RET (Homo sapiens, UniProt P07949); assay: as above; type: binding; settings: reported as percent control, lower numbers indicate stronger activities
T10 construct: purchased Ambit Biosciences
Protocol: as §4, §5

FLT3 = biological target: T11, FLT3 (Homo sapiens, UniProt P36888); assay: as above; type: binding; settings: reported as percent control, lower numbers indicate stronger activities
T11 construct: purchased Ambit Biosciences
T11 sequence (P36888 27-993): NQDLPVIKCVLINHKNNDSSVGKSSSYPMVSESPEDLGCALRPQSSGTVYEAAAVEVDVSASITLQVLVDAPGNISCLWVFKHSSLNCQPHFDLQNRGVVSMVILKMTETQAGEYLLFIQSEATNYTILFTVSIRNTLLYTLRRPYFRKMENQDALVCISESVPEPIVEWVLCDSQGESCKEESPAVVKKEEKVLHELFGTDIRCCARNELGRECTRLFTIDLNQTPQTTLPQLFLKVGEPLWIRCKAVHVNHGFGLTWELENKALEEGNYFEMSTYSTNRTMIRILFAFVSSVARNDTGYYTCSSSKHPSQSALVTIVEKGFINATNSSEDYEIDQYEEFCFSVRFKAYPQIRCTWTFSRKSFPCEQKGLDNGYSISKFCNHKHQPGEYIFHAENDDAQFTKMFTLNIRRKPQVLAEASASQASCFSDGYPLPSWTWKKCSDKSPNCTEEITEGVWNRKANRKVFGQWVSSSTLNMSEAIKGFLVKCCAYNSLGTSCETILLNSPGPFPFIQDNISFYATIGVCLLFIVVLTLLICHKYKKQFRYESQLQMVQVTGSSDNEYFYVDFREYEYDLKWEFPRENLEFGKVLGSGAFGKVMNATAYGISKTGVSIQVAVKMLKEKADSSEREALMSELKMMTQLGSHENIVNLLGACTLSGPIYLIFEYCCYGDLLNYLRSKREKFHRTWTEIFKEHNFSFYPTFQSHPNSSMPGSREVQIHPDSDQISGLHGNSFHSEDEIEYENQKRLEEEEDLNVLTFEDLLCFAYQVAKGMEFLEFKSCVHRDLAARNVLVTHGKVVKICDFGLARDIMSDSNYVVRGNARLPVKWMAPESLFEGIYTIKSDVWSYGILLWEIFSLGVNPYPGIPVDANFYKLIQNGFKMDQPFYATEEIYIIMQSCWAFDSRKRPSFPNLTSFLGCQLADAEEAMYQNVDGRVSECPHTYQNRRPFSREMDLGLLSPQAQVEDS
Protocol: as §4, §5

T1 sequence (Q5S007 970-2527 limits assumed): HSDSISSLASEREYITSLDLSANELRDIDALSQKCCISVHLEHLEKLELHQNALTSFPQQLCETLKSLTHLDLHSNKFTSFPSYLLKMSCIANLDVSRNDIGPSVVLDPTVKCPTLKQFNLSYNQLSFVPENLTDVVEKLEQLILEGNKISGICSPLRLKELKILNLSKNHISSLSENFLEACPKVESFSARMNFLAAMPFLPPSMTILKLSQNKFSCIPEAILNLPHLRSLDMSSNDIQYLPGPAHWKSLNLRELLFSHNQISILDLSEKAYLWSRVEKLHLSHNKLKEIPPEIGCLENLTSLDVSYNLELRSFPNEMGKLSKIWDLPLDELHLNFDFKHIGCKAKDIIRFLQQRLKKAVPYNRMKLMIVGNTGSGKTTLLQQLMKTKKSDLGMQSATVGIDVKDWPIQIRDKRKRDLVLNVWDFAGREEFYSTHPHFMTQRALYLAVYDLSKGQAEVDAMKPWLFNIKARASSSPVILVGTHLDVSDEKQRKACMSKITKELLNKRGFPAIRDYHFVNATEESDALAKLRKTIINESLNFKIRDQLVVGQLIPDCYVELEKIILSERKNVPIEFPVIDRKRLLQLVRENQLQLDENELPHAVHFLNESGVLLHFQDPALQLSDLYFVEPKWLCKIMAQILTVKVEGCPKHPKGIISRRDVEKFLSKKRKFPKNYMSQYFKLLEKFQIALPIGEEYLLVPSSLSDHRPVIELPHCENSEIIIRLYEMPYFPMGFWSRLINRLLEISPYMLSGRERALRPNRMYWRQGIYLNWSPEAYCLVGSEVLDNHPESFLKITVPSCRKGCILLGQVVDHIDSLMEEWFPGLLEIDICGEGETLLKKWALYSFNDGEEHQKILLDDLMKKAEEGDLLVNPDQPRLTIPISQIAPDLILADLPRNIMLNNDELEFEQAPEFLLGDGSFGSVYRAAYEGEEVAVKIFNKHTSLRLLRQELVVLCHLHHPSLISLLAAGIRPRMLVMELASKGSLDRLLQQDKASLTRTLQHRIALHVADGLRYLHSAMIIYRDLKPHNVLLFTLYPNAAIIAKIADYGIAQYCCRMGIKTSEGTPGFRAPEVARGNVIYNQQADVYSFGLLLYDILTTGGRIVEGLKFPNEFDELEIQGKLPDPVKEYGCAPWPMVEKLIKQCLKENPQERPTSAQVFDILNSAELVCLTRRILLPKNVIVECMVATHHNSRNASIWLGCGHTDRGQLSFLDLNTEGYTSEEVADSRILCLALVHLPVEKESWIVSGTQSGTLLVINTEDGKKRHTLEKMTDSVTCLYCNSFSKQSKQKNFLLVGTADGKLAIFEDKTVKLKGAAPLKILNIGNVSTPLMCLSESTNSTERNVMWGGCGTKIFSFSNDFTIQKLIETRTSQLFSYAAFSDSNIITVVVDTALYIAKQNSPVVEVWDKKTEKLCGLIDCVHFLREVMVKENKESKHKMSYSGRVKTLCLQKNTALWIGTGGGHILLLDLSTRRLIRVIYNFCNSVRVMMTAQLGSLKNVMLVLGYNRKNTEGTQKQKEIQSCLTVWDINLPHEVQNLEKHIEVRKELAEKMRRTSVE

For COc1cc(Nc2ncc(C)c(-n3cc(C)c(CO)c3)n2)cc(OC)c1OC [Compound 21, (4-methyl-1-(5-methyl-2-(3,4,5-trimethoxyphenylamino)pyrimidin-4-yl)-1H-pyrrol-3-yl)methanol], the IC50 (K1T) was 137 nM, the inhibition at 1 µM (LRRK2) was 93% and the inhibition at 1 µM (FAK) was 70.7%. For the same molecule, the inhibition at 1 µM (ZAP70) was 54.6%.

Cc1cc(C)cc(Nc2ncc(F)c(-n3cc(C)c(CN4CC[C@@H](O)C4)c3)n2)c1 [Compound 82, (R)-1-((1-(2-(3,5-dimethylphenyl-amino)-5-fluoropyrimidin-4-yl)-4-methyl-1H-pyrrol-3-yl)methyl) pyrrolidin-3-ol] was tested, and the “% of control (remaining binding)” value (KIT) was 26%, the “% of control JAK3” value (JAK3) was 5.4% and the “% of control binding” value (AURKB) was 31%. The “% of control” value (MLK1) was 22%, the “percent of control (lower = stronger binding)” value (PLK3) was 11% and the “% of control AXL” value (AXL) was 31%. For the same molecule, the “RET binding, % of control” value (RET) was 32% and the “% of control” value (FLT3) was 1.1%.
